Experimental data published in US20040087553A1, “Hypoestoxides, derivatives and agonists thereof for use in the treatment and prophylaxis of hyperlipidemia” (Paraquest, Inc., priority 2002, published 2004).

Experiment: Effect of oral hypoestoxide on blood cholesterol and triglyceride levels in a beagle dog (standard colorimetric method on sera)
Type: in vivo
Conditions: 30 mg/kg oral once daily for seven days; for Triglycerides / Cholesterol: dog serum; for Triglycerides: day −1 value 300; for Cholesterol: day −1 value 308
Description: In one example, hypoestoxide was administered orally to a 2-year-old female beagle dog at a dose of 30 mg/kg, once daily for seven days. Blood cholesterol and triglyceride levels were determined in sera obtained at days 1, 3, 7 and 14, respectively. Assays were performed by a standard colorimetric method by a commercial laboratory (Antech Diagnostics, Irvine, Calif.).

For `C=C1C(=O)C[C@H]2C[C@@H]3O[C@@]3(C)CC[C@@H]3O[C@@]3(C)C[C@@H](OC(C)=O)[C@H]1C2(C)C` [hypoestoxide], the “blood cholesterol and triglyceride levels (effect in words)” value (beagle dog) was “significantly lowered”, the Triglycerides (day 1, normal reference range 29-291) was 296 mg/dL and the Cholesterol (day 1, normal reference range 92-324) was 122 mg/dL. For the same compound, the Triglycerides (day 3) was 70 mg/dL, the Cholesterol (day 3) was 130 mg/dL and the Triglycerides (day 7) was 33 mg/dL. The Cholesterol (day 7) was 124 mg/dL, the Triglycerides (day 14) was 51 mg/dL and the Cholesterol (day 14) was 134 mg/dL.
